Drawing on patent US6063803A, “Octahydropyrrolo-[3,4-c]carbazoles useful as analgesic agents” (Ortho-McNeil Pharmaceutical, Inc., priority 1999, dated 2000), this text covers ED50, responders and % of mice protected from abdominal constriction (non-responders) for 32 compounds.

Counter-ions that a name gives are not always drawn.

The first test in a line: mouse acetylcholine bromide-induced abdominal constriction assay. Conditions: Mus musculus. It counts as in vivo, mice (Male, Cr1:CD-1). The procedure:
The analgesic activity of compounds of Formula I were determined in the following in vivo assay. The procedure was run essentially as described by H. Collier et al. in B. J. Pharmacol. Chemother., 32: 295-310, 1968, with minor modifications. Mice (Male, Cr1:CD-1, Charles River Laboratories) were used in the following example. The test drugs or appropriate vehicle were administered orally (10 mL/kg, p.o.) or subcutaneously (10 mL/kg, s.c.) and 30 minutes later the animal received an intraperitoneal (i.p.) injection of 5.5 mg/kg acetylcholine bromide. The mice were then placed in glass bell jars and observed for a ten minute observation period for the occurrence of an abdominal constriction response (defined as a wave of constriction and elongation passing caudally along the abdominal wall, accompanied by a twisting of the trunk and followed by extension of the hind limbs). The percent inhibition of this response to antinociceptive stimulus (equated to % analgesia) was calculated as follows: The % inhibition of response, i.e., % analgesia is equal to the number of non-responding drug-treated animals×100 divided by the number of animals in the group.
The ED50 values and their 95% fiducial limits were determined by a computer assisted probit analysis. […] This effect lasted for 4-5 hours.
Table A lists the % inhibition for some compounds of the invention. Unless otherwise indicated the compounds were administered s.c. at 30 mg/kg. [drawing 63]
As a reminder, the ED50 is the dose at which the effect has come halfway, by size or by number of responders. Low values mean greater potency, high ones weaker potency. `COc1cccc(C2(O)CCCCC2CN(C)C)c1` (stereo not shown) [tramadol, reference compound] came in with a median effective dose (ED50) of 5.4 mg/kg.

The test is the same for the next values; noted with them: Mus musculus, 0.5 h; 30 mg/kg po; acetylcholine bromide 5.5 mg/kg i.p. 30 min later; read-out: % inhibition @ 30 mg/kg (po).
Consider `CN1C[C@@H]2CCc3[nH]c4cc(F)ccc4c3[C@@H]2C1` (relative stereo) [Compound 30, (±)-3aα,10cα-4,5,6,10c-Octahydro-8-fluoro-2-methylpyrrolo[3,4-c]carbazole Fumarate [1:1.5]], for which the responders at 30 mg/kg amounted to 100%.
The same measure, in the same setting: to `CN1C[C@@H]2CCc3[nH]c4cccc(Cl)c4c3[C@@H]2C1` (relative stereo) [Compound 38] belongs 87%; to `Cc1cccc2c3c([nH]c12)CC[C@H]1CN(C)C[C@@H]31` (relative stereo) [Compound 40, (±)-3aα,10cα,-1,2,3,3a,4,5,6,10c-octahydro-2,7-dimethylpyrrolo[3,4-c]carbazole], 87%.
Same read-out and setting: the value for `CN1C[C@@H]2CCc3[nH]c4cccc(F)c4c3[C@@H]2C1` (relative stereo) [Compound 44] was 100%; that for `CN1C[C@@H]2CCc3[nH]c4c(F)cccc4c3[C@@H]2C1` (relative stereo) [Compound 47] was 93%.
With `CC(C)N1C[C@@H]2CCc3[nH]c4ccccc4c3[C@@H]2C1` (relative stereo) [Compound 65, (±)-3aα,10cα-4,5,6,10c-Octahydro-2-(1-methylethyl)pyrrolo[3,4-c]carbazole Hydrochloride Hydrate [1.0:1.0:0.13]], the % of mice protected from abdominal constriction (non-responders) at 30 mg/kg was determined as 93%.
With `CN1C[C@@H]2CCc3[nH]c4ccccc4c3[C@H]2C1` (relative stereo) [Compound 72, (±)-3aα,10cβ-1,2,3,3a,4,5,6,10c-Octahydro-2-methylpyrrolo-[3,4-c]carbazole Fumarate [1.0:0.55]], the responders at 30 mg/kg is 100%.
On the same count and under the same terms, the value for `C[C@@H]1C[C@H]2CN(C)C[C@H]2c2c1[nH]c1ccccc21` (relative stereo) [Compound 88, (±)-3aα,5α,10cα-4,5,6,10c-Octahydro-2,5-dimethylpyrrolo[3,4-c]carbazole] was 93%.

Still in this test, the particulars now being: Mus musculus, sc, 0.5 h; 30 mg/kg s.c.; acetylcholine bromide 5.5 mg/kg i.p. 30 min later; read-out: % inhibition @ 30 mg/kg.
For the compound `CN1C[C@@H]2C(c3ccccc3)Cc3[nH]c4ccccc4c3[C@@H]2C1` (mixture of isomers) [Compound 75, (±)-3aα,10cα-1,2,3,3a,4,5,6,10c-Octahydro-2-methyl-4-phenylpyrrolo-[3,4-c]carbazole Fumarate [1.0:0.55]], the % of mice protected from abdominal constriction (non-responders) at 30 mg/kg was 100%.
Turning to `CN1C[C@@H]2CCc3[nH]c4ccc(F)cc4c3[C@@H]2C1` (relative stereo) [Compound 31], the responders at 30 mg/kg was 93%.
As for `COc1cccc2c3c([nH]c12)CC[C@H]1CN(C)C[C@@H]31` (relative stereo) [Compound 32], the % of mice protected from abdominal constriction (non-responders) at 30 mg/kg was found to be 100%.
On the same count and under the same terms, the value for `CN1C[C@@H]2CCc3[nH]c4c(Cl)ccc(Cl)c4c3[C@@H]2C1` (relative stereo) [Compound 33] was 33%; that for `Cc1ccc2c3c([nH]c2c1C)CC[C@H]1CN(C)C[C@@H]31` (relative stereo) [Compound 34] was 100%.
For `CN1C[C@@H]2CCc3[nH]c4c(Cl)cccc4c3[C@@H]2C1` (relative stereo) [Compound 35], the responders at 30 mg/kg was 93%.
As to `CN1C[C@@H]2CCc3[nH]c4ccc(Br)cc4c3[C@@H]2C1` (relative stereo) [Compound 36], the responders at 30 mg/kg is 100%.
On the same count and under the same terms, the value for `CN1C[C@@H]2CCc3[nH]c4cc(Cl)ccc4c3[C@@H]2C1` (relative stereo) [Compound 37] was 100%.
In the case of `CC(C)c1ccc2[nH]c3c(c2c1)[C@@H]1CN(C)C[C@@H]1CC3` (relative stereo) [Compound 39], the % of mice protected from abdominal constriction (non-responders) at 30 mg/kg stood at 27%.
Regarding `CN1C[C@@H]2CCc3[nH]c4cc(C(F)(F)F)ccc4c3[C@@H]2C1` (relative stereo) [Compound 41], the % of mice protected from abdominal constriction (non-responders) at 30 mg/kg was 100%.
On the same count and under the same terms, to `CN1C[C@@H]2CCc3[nH]c4cccc(C(F)(F)F)c4c3[C@@H]2C1` (relative stereo) [Compound 42] belongs 60%.
Consider `CN1C[C@@H]2CCc3[nH]c4c(Br)cccc4c3[C@@H]2C1` (relative stereo) [Compound 45], for which the responders at 30 mg/kg was 73%.
As for `CCc1cccc2c3c([nH]c12)CC[C@H]1CN(C)C[C@@H]31` (relative stereo) [Compound 46], the % of mice protected from abdominal constriction (non-responders) at 30 mg/kg worked out at 100%.
On the same count and under the same terms, the value for `CN1C[C@@H]2CCc3[nH]c4c(C(F)(F)F)cccc4c3[C@@H]2C1` (relative stereo) [Compound 48] was 100%; that for `Cc1cc(C)c2c3c([nH]c2c1)CC[C@H]1CN(C)C[C@@H]31` (relative stereo) [Compound 49] was 100%; that for `CN1C[C@@H]2CCc3[nH]c4cc(F)cc(F)c4c3[C@@H]2C1` (relative stereo) [Compound 50] was 100%.
Still for that read-out and setting: the value for `CC(C)(C)N1C[C@@H]2CCc3[nH]c4ccccc4c3[C@@H]2C1` (relative stereo) [Compound 53] was 100%.
Regarding `c1ccc2c3c([nH]c2c1)CC[C@H]1CNC[C@@H]31` (relative stereo) [Compound 64, (±)-3aα,10cα-4,5,6,10c-Octahydropyrrolo[3,4-c]carbazole], the responders at 30 mg/kg was found to be 80%.
With `C=CCN1C[C@@H]2CCc3[nH]c4ccccc4c3[C@@H]2C1` (relative stereo) [Compound 66, (±)-3aα,10cα-1,2,3,3a,4,5,6,10c-Octahydro-2-(propenyl)pyrrolo[3,4-c]carbazole Fumarate [1:0.6]], the % of mice protected from abdominal constriction (non-responders) at 30 mg/kg amounted to 100%.
As to `C[C@@H]1[C@@H]2c3c([nH]c4ccccc34)CC[C@@H]2CN1C` (relative stereo) [Compound 69, (±)-1α,3aβ,10cβ-1,2,3,3a,4,5,6,10c-Octahydro-1,2-dimethylpyrrolo-[3,4-c]carbazole], the responders at 30 mg/kg was 100%.
In the case of `CN1C[C@@H]2CCc3[nH]c4ccc(C#N)cc4c3[C@@H]2C1` (relative stereo) [Compound 73, (±)-3aα,10cα-1,2,3,3a,4,5,6,10c-Octahydro-9-cyano-2-methylpyrrolo-[3,4-c]carbazole], the % of mice protected from abdominal constriction (non-responders) at 30 mg/kg was 100%.
With `C[C@H]1C[C@H]2CN(C)C[C@H]2c2c1[nH]c1ccccc21` (relative stereo) [Compound 89, (±)-3aα,5β,10cα-4,5,6,10c-Octahydro-2,5-dimethylpyrrolo[3,4-c]carbazole], the responders at 30 mg/kg worked out at 100%.
Still for that read-out and setting: the value for `CN1CC2CCc3[nH]c4ccccc4c3C2C1` (single isomer, unassigned) [Compound 57] was 100%.

A further test in a line: rat air-induced writhing (abdominal constriction) assay. The format is in vivo, rats. Conditions: Rattus norvegicus, po. The procedure: The analgesic activity was determined in another model using rats as the test animal. The procedure was essentially described by P. VonVoightlander et al. in Air-induced Writhing, a Rapid Broad Spectrum Assay for Analgesics, Drug Dev. Res., 2, 577-81, (1982). The test compound or vehicle was administered p.o. (2 mL/kg) and after 30 min, the animals received an i.p. injection of air (10 mL). The animals were placed into individual observation chambers and observed for 30 min for the occurrence of abdominal constriction as defined above. The percent inhibition of this response was calculated as follows. The % inhibition of response, i.e., % analgesia is equal to the number nonresponding drug-treated animals×100 divided by the number of animals in the group. […] This effect lasted for 2-3 hours.
Background: In writhing tests, fewer writhes than in controls are read as antinociception.
Compound `COc1cccc(C2(O)CCCCC2CN(C)C)c1` (stereo not shown) [tramadol, reference compound] gave an ED50 of 1.7 mg/kg.

The next test in a line: mouse hot plate assay (48° C.). It counts as in vivo, mice. To be noted: Mus musculus, po, 0.5 h. The procedure:
The test was essentially described by N. Eddy and D. Leimbach, Synthetic Analgesics II Dithienylbutenyl- and Dithienylbutylamines, J. Pharmacol. Exp. Ther., 107, 385-93 (1953) and J. O'Callaghan and S. Holtzman, Qualification of the Analgesic Activity of Narcotic Antagonists by a Modified Hot-Plate Procedure, J. Pharmacol. Exp. Ther, 192, 497-505 (1975), with minor modifications. Mice were placed on a heated surface (48° C.) and the time interval (seconds) between placement and a shaking, licking, or tucking of the hind paw was recorded as the predrug latency response. This procedure was repeated 30 minutes after the administration of a test compound (p.o., 10 mL/kg). The percent maximum possible antinociceptive effect (% MPE) was determined using the following formula: % MPE=100×(Test latency-Predrug latency)/(Cutoff time-Predrug Latency), using the predrug latency of each animal and cutoff time established to prevent injury to the animal. The cutoff time was 90s.
The ED50 value and 95% confidence intervals were determined using a computer-assisted linear regression analysis of the dose-response curve, including an analysis of variance test for linearity. Oral dosing of Compound 58 produced an analgesic effect after 15 min. This effect lasted for one hour.
`COc1cccc(C2(O)CCCCC2CN(C)C)c1` (stereo not shown) [tramadol, reference compound]: it took a dose of 28.3 mg/kg to reach the 50% effect level (ED50).
